Reference: patent US20220226298A1, “GPR40 AGONISTS” (Kallyope, Inc., priority 2019, published 2022)

Molecular target: T1, human GPR40 (Homo sapiens, UniProt O14842)
T1 construct: host or cells: CHO-K1
Assay: Inositol phosphate accumulation assay (IP1 HTRF) in CHO-K1 cells expressing human GPR40
Assay type: cell-based
Conditions: 90 min stimulation
Description: CHO-KI cells expressing human GPR40 were purchased from DiscoverX (95-1005C2). HEK293 cells expressing mouse FFAR1 were prepared using a mouse FFAR1 carrying plasmid purchased from OriGene Technologies (MR222997). The cells were transfected using Lipofectamine 2000 using manufacturer instructions and stable cell line was established from a single cell using geneticine selection. Assay ready frozen (ARF) cells were prepared and used throughout the study.
The assay was performed in a 384-well plate format using IP1 assay kit from Cis-Bio. ARF cells expressing FFAR1 (mouse and human) were thawed, washed and then plated in the appropriate medium (F12 based medium for CHO hFFAR1 and DMEM based medium for HEK293 mFFAR1—both were supplemented with 10% FBS and penicillin/streptomycin). 20 μL of 3.5×10^5 cells/mL were plated on a Poly D-Lysine coated 384-well white plate. The cells were then incubated for 16 hr at 37° C./5% CO2. After 16 hr the medium was removed and 15 μL of stimulation buffer containing the test compounds was added to the cells. The plates were then incubated for 90 min at 37° C./5% CO2. 5 μL of detection buffer (prepared as described in the IP-one kit) was added to each well and the plates were incubated at RT for 1 hr.
[…] was measured using ClarioSTAR plate reader, calculating the ratio between emissions at 665 nm and 620 nm (HTRF ratio). HTRF ratio for positive (Max) and negative (Min) controls were used to normalize HTRF data and generate values for % activity. EC50 and Max activity values were determined using a standard 4-parameter fit.

T1 sequence (O14842 whole entry): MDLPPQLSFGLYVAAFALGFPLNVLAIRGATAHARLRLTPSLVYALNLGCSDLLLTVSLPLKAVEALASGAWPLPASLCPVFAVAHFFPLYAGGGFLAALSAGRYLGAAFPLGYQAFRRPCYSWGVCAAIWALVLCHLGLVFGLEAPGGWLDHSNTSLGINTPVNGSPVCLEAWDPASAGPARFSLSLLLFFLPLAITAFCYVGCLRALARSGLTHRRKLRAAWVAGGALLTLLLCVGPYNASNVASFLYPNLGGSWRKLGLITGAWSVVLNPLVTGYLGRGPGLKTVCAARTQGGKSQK

| SMILES | EC50 [nM] |
| --- | --- |
| COc1cc(-c2ccc(C(=O)Oc3cccc([C@H](C4CC4)[C@H](C)C(=O)O)c3)c(C)c2)c(F)cn1 [Compound 14] | ≤ 10 |
| O=C(O)C[C@H](c1cccc(OC(=O)c2ccc(-c3cc(O)ccc3F)cc2)c1)C1CC1 [Compound 2] | 10 to 100 |
| COc1cc(-c2cc(C)c(C(=O)Oc3cccc([C@H](CP(C)(=O)O)C4CC4)c3)cc2CN(C(C)C)C(C)C)c(F)cn1 (single isomer, unassigned) [Compound 71a] | > 500 |
| COc1ccc(F)c(-c2ccc(C(=O)Oc3cccc([C@@H](CC(=O)O)C4CC4)c3)nc2)c1 [Compound 4] | > 500 |
| CC(c1cc(C(F)(F)F)ccc1C(F)(F)F)N1CCC(C(=O)Oc2cccc([C@@H](CC(=O)O)C3CC3)c2)CC1 (stereo partly shown) [Compound 9] | 10 to 100 |
| COc1cc(-c2ccc(C(=O)Oc3cccc(C(CS(=O)(=O)O)C4CC4)c3)cc2CN(C(C)C)C(C)C)c(F)cn1 (stereo not shown) [Compound 67, 2-cyclopropyl-2-(3-((3-((diisopropylamino)methyl)-4-(5-fluoro-2-methoxypyridin-4-yl)benzoyl)oxy)phenyl)ethanesulfonic acid] | > 500 |
| COc1ccc(F)c(-c2ccc(OC(=O)c3cccc([C@@H](CC(=O)O)C4CC4)c3)cc2)c1 [Compound 41] | 100 to 500 |
| O=C(O)C[C@H](c1cccc(C(=O)Oc2ccc(-c3cc(O)ccc3F)cc2)c1)C1CC1 [Compound 43] | 100 to 500 |
| COc1cc(-c2ccc(C(=O)Oc3cccc([C@H](C4CC4)[C@H](C)C(=O)O)c3)cc2CN2CCC(C)(C)C2)c(F)cn1 [Compound 33, (2S,3R)-3-cyclopropyl-3-[3-[3-[(3,3-dimethylpyrrolidin-1-yl)methyl]-4-(5-fluoro-2-methoxy-4-pyridyl)benzoyl]oxyphenyl]-2-methyl-propanoic acid] | ≤ 10 |
| COc1ccc(F)c(-c2ccc(OC(=O)c3cccc([C@@H](CC(=O)O)C4CC4)c3)c(C)c2)c1 [Compound 45, (S)-3-cyclopropyl-3-(3-(((2′-fluoro-5′-methoxy-3-methyl-[1,1′-biphenyl]-4-yl)oxy)carbonyl)phenyl)propanoic acid] | 100 to 500 |
| COc1cc(-c2cc(C)c(C(=O)Oc3cccc(C(CP(C)(=O)O)C4CC4)c3)cc2CN(C(C)C)C(C)C)c(F)cn1 (stereo not shown) [Compound 70, (2-cyclopropyl-2-(3-((5-((diisopropylamino)methyl)-4-(5-fluoro-2-methoxypyridin-4-yl)-2-methylbenzoyl)oxy)phenyl)ethyl)(methyl)phosphinic acid] | > 500 |
| COc1cc(-c2ccc(OC(=O)c3cccc([C@H](C4CC4)[C@H](C)C(=O)O)c3)c(CN(C(C)C)C(C)C)c2)c(F)cn1 [Compound 55] | ≤ 10 |
| COc1cc(-c2ccc(C(=O)Oc3cccc([C@H](C4CC4)[C@H](C)C(=O)O)c3)cc2)c(F)cn1 [Compound 25] | ≤ 10 |
| COc1ccc(F)c(-c2ccc(C(=O)Oc3cccc([C@@H](CC(=O)O)C4CC4)c3)c(C)c2)c1 [Compound 6] | 10 to 100 |
| CC(c1cc(C(F)(F)F)ccc1C(F)(F)F)N1CC(C)(C(=O)Oc2cccc([C@@H](CC(=O)O)C3CC3)c2)C1 (stereo partly shown) [Compound 12] | 10 to 100 |
| COc1cc(-c2cc(F)c(OC(=O)c3cccc([C@H](C4CC4)[C@H](C)C(=O)O)c3)cc2CN(C(C)C)C(C)C)ccn1 [Compound 59, (2S,3R)-3-cyclopropyl-3-(3-((5-((diisopropylamino)methyl)-2-fluoro-4-(2-methoxypyridin-4-yl)phenoxy)carbonyl)phenyl)-2-methylpropanoic acid] | ≤ 10 |
| CC(c1cc(C(F)(F)F)ccc1C(F)(F)F)N1CC[C@H](OC(=O)c2cccc([C@@H](CC(=O)O)C3CC3)c2)C1 (stereo partly shown) [Compound 49] | > 500 |
| COc1cc(-c2cc(C)c(C(=O)Oc3cccc([C@@H](CC(=O)O)C4CC4)c3)c(F)c2)ccn1 [Compound 18] | 100 to 500 |
| COc1cc(-c2ccc(C(=O)Oc3cccc([C@H](C4CC4)[C@H](C)C(=O)O)c3)cc2CN2CCCC2(C)C)c(F)cn1 [Compound 32] | ≤ 10 |
| COc1ccc(F)c([C@H]2CC[C@H](C(=O)Oc3cccc([C@H](C4CC4)[C@@](C)(F)C(=O)O)c3)CC2)c1 [Compound 62] | ≤ 10 |

| SMILES | EC50 [nM] |
| --- | --- |
| CCN(Cc1cc(C(=O)Oc2cccc([C@@H](CC(=O)O)C3CC3)c2)c(C)cc1-c1cc(OC)ncc1F)C(C)C [Compound 11, (S)-3-cyclopropyl-3-(3-((5-((ethyl(isopropyl)amino)methyl)-4-(5-fluoro-2-methoxypyridin-4-yl)-2-methylbenzoyl)oxy)phenyl)propanoic acid] | 100 to 500 |
| COc1cc(-c2ccc(OC(=O)c3cccc([C@H](C4CC4)[C@H](C)C(=O)O)c3)c(C)c2)c(F)cn1 [Compound 56] | ≤ 10 |
| COc1cc(-c2ccc(C(=O)Oc3cccc([C@H](C4CC4)[C@H](C)C(=O)O)c3)c(C)c2)c(C(=O)NCCO)cn1 [Compound 51] | > 500 |
| COc1cc(-c2ccc(C(=O)Oc3cccc([C@@H](CC(=O)O)C4CC4)c3)c(F)c2)ccn1 [Compound 17] | 100 to 500 |
| COc1ccc(C(=O)N(CC(C)(C)C)c2cccc(C)n2)c(-c2ccc(C(=O)Oc3cccc([C@H](C4CC4)[C@H](C)C(=O)O)c3)c(C)c2)c1 [Compound 31, (2S,3R)-3-cyclopropyl-3-(3-((5′-methoxy-3-methyl-2′-((6-methylpyridin-2-yl)(neopentyl)carbamoyl)-[1,1′-biphenyl]-4-carbonyl)oxy)phenyl)-2-methylpropanoic acid] | ≤ 10 |
| COc1cc(-c2ccc(C(=O)Oc3cccc([C@@H](CC(=O)O)C4CC4)c3)cc2)c(F)cn1 [Compound 3] | 10 to 100 |
| COc1cc(-c2ccc(C(=O)Oc3cccc(C(CP(C)(=O)O)C4CC4)c3)cc2CN(C(C)C)C(C)C)c(F)cn1 (stereo not shown) [Compound 66, (2-cyclopropyl-2-(3-((3-((diisopropylamino)methyl)-4-(5-fluoro-2-methoxypyridin-4-yl)benzoyl)oxy)phenyl)ethyl)(methyl)phosphinic acid] | > 500 |
| COc1cc(-c2ccc(C(=O)Oc3cccc([C@@H](CC(=O)O)C4CC4)c3)c(C)c2)c(F)cn1 [Compound 10, (S)-3-cyclopropyl-3-(3-((4-(5-fluoro-2-methoxypyridin-4-yl)-2-methylbenzoyl)oxy)phenyl)propanoic acid] | 100 to 500 |
| COc1cc(-c2ccc(C(=O)Oc3cccc([C@H](C4CC4)[C@H](C)C(=O)O)c3)cc2CN(C[C@H](O)[C@@H](O)[C@H](O)[C@H](O)CO)C(C)C)c(F)cn1 [Compound 35, (2S,3R)-3-cyclopropyl-3-(3-((4-(5-fluoro-2-methoxypyridin-4-yl)-3-((isopropyl((2S,3R,4R,5R)-2,3,4,5,6-pentahydroxyhexyl)amino)methyl)benzoyl)oxy)phenyl)-2-methylpropanoic acid] | > 500 |
| COc1cc(-c2ccc(C(=O)Oc3cccc([C@H](C4CC4)[C@H](C)C(=O)O)c3)c(C)c2)ccn1 [Compound 29] | ≤ 10 |
| COc1cc(-c2ccc(OC(=O)c3cccc([C@H](C4CC4)[C@H](C)C(=O)O)c3)cc2)c(F)cn1 [Compound 54] | ≤ 10 |
| COc1cc(-c2ccc(C(=O)Oc3cccc([C@H](C4CC4)[C@H](C)C(=O)O)c3)cc2)ccn1 [Compound 27] | ≤ 10 |
| COc1cc(-c2ccc(OC(=O)c3cccc([C@@H](CC(=O)O)C4CC4)c3)cc2)c(F)cn1 [Compound 44] | 100 to 500 |
| COc1ccc(F)c([C@H]2CC[C@H](C(=O)Oc3cccc([C@H](C4CC4)[C@H](C)C(=O)O)c3)CC2)c1 [Compound 40, (2S,3R)-3-cyclopropyl-3-(3-(((1r,4R)-4-(2-fluoro-5-methoxyphenyl)cyclohexanecarbonyl)oxy)phenyl)-2-methylpropanoic acid] | ≤ 10 |
| COc1cc(-c2cc(C)c(C(=O)Oc3cccc([C@@H](CP(C)(=O)O)C4CC4)c3)cc2CN(C(C)C)C(C)C)c(F)cn1 (single isomer, unassigned) [Compound 71b] | > 500 |
| CCN(Cc1cc(C(=O)Oc2cccc([C@H](C3CC3)[C@H](C)C(=O)O)c2)ccc1-c1cc(OC)ncc1F)C(C)C [Compound 34, (2S,3R)-3-cyclopropyl-3-(3-((3-((ethyl(isopropyl)amino)methyl)-4-(5-fluoro-2-methoxypyridin-4-yl)benzoyl)oxy)phenyl)-2-methylpropanoic acid] | ≤ 10 |
| COc1cc(-c2cc(F)c(C(=O)Oc3cccc([C@@H](CC(=O)O)C4CC4)c3)cc2CN(C(C)C)C(C)C)ccn1 [Compound 16, (S)-3-cyclopropyl-3-(3-((5-((diisopropylamino)methyl)-2-fluoro-4-(2-methoxypyridin-4-yl)benzoyl)oxy)phenyl)propanoic acid] | ≤ 10 |
| CCN(Cc1cc(C(=O)Oc2cccc([C@H](C3CC3)[C@H](C)C(=O)O)c2)ccc1-c1cc(OC)ccc1F)C(C)C [Compound 30] | ≤ 10 |
| CC(c1cc(C(F)(F)F)ccc1C(F)(F)F)N1CCN(C(=O)Oc2cccc([C@@H](CC(=O)O)C3CC3)c2)CC1 (stereo partly drawn) [Compound 20, (3S)-3-(3-((4-(1-(2,5-bis(trifluoromethyl)phenyl)ethyl)piperazine-1-carbonyl)oxy)phenyl)-3-cyclopropylpropanoic acid] | 10 to 100 |
| COC(=O)c1cnc(OC)cc1-c1ccc(C(=O)Oc2cccc([C@H](C3CC3)[C@H](C)C(=O)O)c2)cc1CN(C(C)C)C(C)C [Compound 53] | ≤ 10 |
